Reference: patent US20220023196A1, “COSMETIC COMPOSITION FOR SKIN IMPROVEMENT COMPRISING GREEN BARLEY EXTRACT” (AMI COSMETIC CO., LTD., priority 2020, published 2022)

Assays:
sensitive skin = test: Human patch test for skin irritation on sensitive skin; assay type: in vivo
Protocol: A test was conducted to evaluate the suitability and safety of use of soothing gel, lotion, cream, body wash, and foam cleanser formulations including a composition including the ceramide and green barley extract of the present invention. The inventors requested the OATC Skin Clinical Trials Center to perform a human application test, and the test was conducted in accordance with the cosmetics guidelines of Korea's Ministry of Food and Drug Safety, Declaration of Helsinki, and OATC Skin Clinical Trials Center's SOP.
In order to classify the test subjects according to skin type, the test subjects were screened by a stinging test to identify those with sensitive skin, wherein steam was applied to their faces for 10 minutes using a steamer to make their skin sensitive, and subsequently, each of 10% lactic acid and distilled water (D.W.) was applied to the nasolabial folds on either side of the nose.
After the test subject's test site was wiped off with 70% ethanol and dried, 25 μl of a test product was applied dropwise to IQ Ultra, which was then attached and fixed to the test site. At 30 minutes, 24 hours, and 48 hours after removing the patch, the level of irritation was evaluated by two experts using, as a standard, the evaluation method devised by Frosch & Kligman and employing the reading standards of the International Contact Dermatitis Research Group (ICDRG).
In addition, safety zones were established, and an experiment was conducted while using the safety zones as criteria for evaluating the likelihood of causing irritation.

filaggrin (FLG) = test: FLG production in HaCaT cells (Filaggrin-ELISA kit); assay type: cell-based; details: for Increase in FLG production (%): 24 hours, Concentration 50 (unit not given), Control = 100
Protocol: (§1) HaCaT cells were dispensed into a 24-well plate at 1.0×10^5 cells/mL and cultured under the conditions of 37° C. and 5% CO2 for 18 hours. After the medium was replaced with serum-free DMEM, the cells were treated with a sample and then cultured for 24 hours. Subsequently, the culture solution was removed, and each group was washed with PBS and then treated with PBS containing no drugs that could interfere with the quantification of proteins. The cells were lysed through repeated switching between low-temperature incubation and room-temperature incubation, and the proteins were collected. The quantification was performed, using a Filaggrin-ELISA kit (Elabscience Biotechnology Co., Ltd.), according to the method specified by the manufacturer.
In order to evaluate the skin barrier strengthening effect of Examples 1 to 6 and Comparative Examples 1 to 5, an experiment was conducted to evaluate the effect of increasing the production of FLG.
The production amount of FLG was measured in the same manner as in Experimental Example 3-1.

hyaluronic acid (HA) = test: HA production in HaCaT cells (hyaluronic acid ELISA kit); assay type: cell-based; details: 24 hours; for Increase in HA production (%): Concentration 50 (unit not given), Control = 100
Protocol: HaCaT cells were dispensed into a 24-well plate at 1.0×10^5 cells/mL and cultured under the conditions of 37° C. and 5% CO2 for 18 hours. After the medium was replaced with serum-free DMEM, the cells were treated with a sample and then cultured for 24 hours. Subsequently, the culture medium was collected and centrifuged at 15,000 rpm for five minutes, and the supernatant was collected and stored frozen (−20° C.) until quantified. Enzyme-linked immunosorbent assay (ELISA) was conducted, using a hyaluronic acid ELISA kit (Elabscience Biotechnology Co., Ltd.), according to the method specified by the manufacturer.
In order to evaluate the moisturizing effect of Examples 1 to 6 and Comparative Examples 1 to 5, an experiment was conducted to evaluate an HA production increasing effect.
The HA production amount was measured in the same manner as in Experimental Example 3-2.

aquaporin 3 (AQP3) = test: AQP3 production in HaCaT cells (AQP3-ELISA kit); assay type: cell-based; details: 24 hours; for Increase in AQP3 production (%): Concentration 50 (unit not given), Control = 100
Protocol: as §1, with “In addition, HaCaT cells” for “HaCaT cells”, “cells/mL and then cultured under” for “cells/mL and cultured under”, “performed, using an AQP3-ELISA kit (Elabscience” for “performed, using a Filaggrin-ELISA kit (Elabscience”
In order to evaluate the moisturizing effect of Examples 1 to 6 and Comparative Examples 1 to 5, an experiment was conducted to evaluate an AQP3 production increasing effect.
The AQP3 production amount was measured in the same manner as in Experimental Example 3-2.

CCCCCCCCCCCCOS(=O)(=O)[O-].[Na+] [1% SLS]
Sum of skin irritation reaction intensity 1st (sensitive skin; 1st reading, patch test): 4.00 | Sum of skin irritation reaction intensity 2nd (sensitive skin; 2nd reading, patch test): 4.00 | Sum of skin irritation reaction intensity 3rd (sensitive skin; 3rd reading, patch test): 3.06 | Irritation of level ++ or more in >10% of test subjects (sensitive skin; conformity criterion): Conforming | Safety zone (sensitive skin; conformity to safety zone of Table 20): Conforming | Skin irritation index (sensitive skin; patch test): 3.06

CCCCCCCCCCCCC/C=C/C(O)C(CO)NC(=O)CCCCCCCCCCCCCCCCCCCCCC (stereo not drawn) [Comparative Example 2, Ceramide NS]
Increase in FLG production (%) (filaggrin (FLG)): 116.7% | Increase in HA production (%) (hyaluronic acid (HA)): 94.5% | Increase in AQP3 production (%) (aquaporin 3 (AQP3)): 118.5%

CCCCCCCCCCCCCCCCCCCCCCC(=O)NC(CO)C(O)C(O)CCCCCCCCCCCCCC (stereo not drawn) [Comparative Example 3, Ceramide NP]
Increase in FLG production (%) (filaggrin (FLG)): 115.5% | Increase in HA production (%) (hyaluronic acid (HA)): 93.2% | Increase in AQP3 production (%) (aquaporin 3 (AQP3)): 114.6%

CCCCCCCCCCCCC/C=C/C(O)C(CO)NC(=O)C(O)CCCCCCCCCCCCCCCCCCCCC (stereo not drawn) [Comparative Example 4, Ceramide AS]
Increase in FLG production (%) (filaggrin (FLG)): 122.4% | Increase in HA production (%) (hyaluronic acid (HA)): 94.6% | Increase in AQP3 production (%) (aquaporin 3 (AQP3)): 114.5%

CCCCCCCCCCCCCCCCCCCCCC(O)C(=O)NC(CO)C(O)C(O)CCCCCCCCCCCCCC (stereo not drawn) [Comparative Example 5, Ceramide AP]
Increase in FLG production (%) (filaggrin (FLG)): 129.9% | Increase in HA production (%) (hyaluronic acid (HA)): 95.2% | Increase in AQP3 production (%) (aquaporin 3 (AQP3)): 113.7%

O=c1cc(-c2ccc(O)cc2)oc2cc(O[C@@H]3O[C@H](CO)[C@@H](O)[C@H](O)[C@H]3O)c([C@@H]3O[C@H](CO)[C@@H](O)[C@H](O)[C@H]3O)c(O)c12 [saponarin, 5-hydroxy-2-(4-hydroxyphenyl)-6-[3,4,5-trihydroxy-6-(hydroxymethyl)oxan-2-yl]-7-[3,4,5-trihydroxy-6-(hydroxymethyl)oxan-2-yl]oxychromen-4-one]
Increase of the expression level of FLG compared to the control (filaggrin (FLG); 24 hours (FIG. 6)): 29.87% | Production of HA (result in words) (hyaluronic acid (HA)): significantly increased the production of skin moisturizing factors | Production of AQP3 (result in words) (aquaporin 3 (AQP3)): significantly increased the production of skin moisturizing factors

Ceramide EOP [Comparative Example 1]
Increase in FLG production (%) (filaggrin (FLG)): 119.5% | Increase in HA production (%) (hyaluronic acid (HA)): 93.0% | Increase in AQP3 production (%) (aquaporin 3 (AQP3)): 117.5%
